From US20200093932A1, “TREATMENT OF CANCER” (BlueLink Pharmaceuticals, Inc., priority 2016, published 2020)

Tests used:
Assay type in all cases: in vivo
[1] = system: B16.F10 mouse melanoma tumor model; assay: Example 2: CRLX101 with INCB-024360, tumor growth inhibition and delay
Experimental: On Day 1, B16.F10 cells, passage 5, were suspended in DMEM (Dulbecco's Modified Eagle Medium) and implanted subcutaneously (SC) in mice. When the mean tumor volume reached 60 mm^3, the mice were randomized into study groups and given one of the following treatments: • a control vehicle (20% DMSO/7.5% propylene glycol/5% Tween 80/67.5% PBS) administered IP bid for 13 days, from Day 5 to Day 17, with a dose volume of 10 mL/kg • CRLX101 administered IV at 6 mg/kg q7dx2, i.e. on Day 5 and Day 12 at a dose volume of 10 mL/kg as monotherapy and in combination • INCB-024360 (lot #01, SelleckChem, Houston, Tex.) 10 mg/mL in 20% DMSO/[…]/5% Tween 80/67.5% PBS. The dose was 100 mg/kg administered PO twice every day with a dose volume of 10 mL/kg for 13 days, from Day 5 to […] post tumor implantation as a monotherapy and in combination with CRLX101
(§1) Tumor volumes were measured 3 times every week using the equation (width*width*length)/2, in mm^3. Tumor growth inhibition (TGI) was determined by comparing the mean tumor volume of the treated group with the mean tumor volume of the control group, as the decrease in tumor volume of the treated group as a percent of total tumor volume of the control group. The equation to calculate TGI is (1-(treated volume/control volume))*100.
(§2) Tumor growth delay (TGD) was determined as the number of days between when the control group reached the tumor volume endpoint and when the treated group reached the tumor volume endpoint.

[2] = system: B16.F10 mouse melanoma tumor model; assay: Example 4: CRLX101 + NLG-919 analog versus Irinotecan + NLG-919 analog, tumor growth inhibition and delay; settings: for Inhibit tumor growth?: B16.F10 SC tumors in mice, CRLX101 6 mg/kg IV q7dx2 (Day 6, 13), NLG-919 analog 12.5 mg/kg IP bid Day 6-19, Irinotecan 100 mg/kg q7dx2 (Day 6, 13); for TGI vs. Control (%): same dosing, relative to vehicle control
Experimental: On Day 1, B16.F10 cells, passage 3, were suspended in DMEM (Dulbecco's Modified Eagle Medium) and implanted subcutaneously (SC) in mice. […] The dose was 100 mg/kg q7dx2, i.e., administered at a dose volume of 10 mL/kg on Day 6 and Day 13 post tumor implantation as a monotherapy and in combination.
as §1, §2

[3] = system: B16.F10 mouse melanoma tumor model; assay: Example 3: CRLX101 with Indoximod, tumor growth inhibition and delay
Experimental: On Day 1, B16.F10 cells, passage 2, were suspended in DMEM (Dulbecco's Modified Eagle Medium) and implanted subcutaneously (SC) in mice. When the mean tumor volume reached 69 mm^3, the mice were randomized into study groups and given one of the following treatments: • a control vehicle (drinking water with the sweetening agent Equal™ added (2 g/L)) was included in the study from Day 7 to Day 19 post tumor implantation. • CRLX101 administered IV at 6 mg/kg q7dx2, i.e. on Day 7 and Day 14 at a dose volume of 10 mL/kg as monotherapy and in combination. • Indoximod (lot # MKBQ8091V, Sigma-Aldrich) was administered in the drinking water at a concentration of 2 mg/mL from Day 7 to Day 19 post tumor implantation as a monotherapy and in combination with CRLX101. The water had Equal™ added (2 g/L).
Tumor volumes were measured 3 times every week using the equation (width*width*length)/2, in mm^3. The endpoint for tumor volume was 2000 mm^3. Tumor growth inhibition (TGI) was determined by comparing the mean tumor volume of the treated group with the mean tumor volume of the control group, as the decrease in tumor volume of the treated group as a percent of total tumor volume of the control group. […]
as §2

[4] = system: B16.F10 mouse melanoma tumor model; assay: Example 1: CRLX101 with NLG-919 analog or INCB-024360 analog, tumor growth inhibition and delay
Experimental: On Day 1, B16.F10 cells, passage 3, were suspended in DMEM (Dulbecco's Modified Eagle Medium) and implanted subcutaneously (SC) in mice. […] The dose was 100 mg/kg administered PO twice every day with a dose volume of 10 mL/kg for 14 days, from Day 7 to Day 20 post tumor implantation as a monotherapy and in combination with CRLX101
as §1, §2

[5] = system: B16.F10 mouse melanoma tumor model; assay: Example 5: CRLX101 + NLG-919 analog versus anti-PD-1 antibody + NLG-919 analog, tumor growth inhibition and delay
Experimental: On Day 1, B16.F10 cells, passage 3, were suspended in DMEM (Dulbecco's Modified Eagle Medium) and implanted subcutaneously (SC) in mice.
as §1, with “(1−(treated” for “(1-(treated”
as §2

[6] = same dosing, vs vehicle when the control group reached the tumor volume endpoint

With `NS(=O)(=O)NCCNc1nonc1/C(=N/O)Nc1ccc(F)c(Br)c1` [INCB-024360] the “Inhibit tumor growth?” value ([1]; B16.F10 SC tumors in mice, CRLX101 6 mg/kg IV q7dx2 (Day 5, 12), INCB-024360 100 mg/kg PO bid Day 5-18) was “did not inhibit tumor growth and No”, the “TGD (Day)” value ([1]; same dosing, days between control and treated group reaching the tumor volume endpoint) was “no TGD” and the “TGI vs. Control (%)” value [1, 6] was 20%.
For `CCc1c2c(nc3ccc(OC(=O)N4CCC(N5CCCCC5)CC4)cc13)-c1cc3c(c(=O)n1C2)COC(=O)[C@]3(O)CC` [Irinotecan], the “Inhibit tumor growth?” value [2] was “No” and the “TGI vs. Control (%)” value [2] was −12%.
For `Cn1cc(C[C@@H](N)C(=O)O)c2ccccc21` [Indoximod], the “Inhibit tumor growth?” value ([3]; B16.F10 SC tumors in mice, CRLX101 6 mg/kg IV q7dx2 (Day 7, 14), Indoximod 2 mg/mL in drinking water Day 7-19) was “did not inhibit tumor growth and No” and the “TGI vs. Control (%)” value ([3]; same dosing, vs vehicle when the control group reached the tumor volume endpoint (2000 mm^3)) was −49%.
In the case of `OC(CC1c2ccccc2-c2cncn21)C1CCCCC1` (stereo not shown) [NLG-919 analog], the “Inhibit tumor growth?” value ([4]; B16.F10 SC tumors in mice, CRLX101 6 mg/kg IV q7dx2 (Day 7, 14), NLG-919 analog 12.5 mg/kg IP bid Day 7-20, INCB-024360 analog 100 mg/kg PO bid Day 7-20) is reported as “No”, the “TGI vs. Control (%)” value ([4]; same dosing, mean tumor volume vs vehicle when the control group reached the tumor volume endpoint) is reported as 23% and the “Inhibit tumor growth?” value ([5]; B16.F10 SC tumors in mice, CRLX101 6 mg/kg IV q7dx2 (Day 6, 13), NLG-919 analog 12.5 mg/kg IP bid Day 6-19, anti-mouse PD-1 antibody 200 μg per mouse IP Day 6, 9, 13, 16) is reported as “did not inhibit tumor growth and No”. For the same compound, the “TGI vs. Control (%)” value [5, 6] was 15%, the “Inhibit tumor growth?” value [2] was “did not inhibit tumor growth and No” and the “TGI vs. Control (%)” value [2] was 5%.
